In patent US9056840B2, “Coelenterazine analogues and coelenteramide analogues” (JNC Corporation, priority 2010, dated 2015):
Entries after “also recorded” stand apart in the source; their conditions may differ.

Experiments:
[1] = molecular target: T1, 19 kDa protein from Oplophorus luciferase (Oplophorus gracilirostris, UniProt Q9GV45); assay: Substrate specificity and luminescence activity of the 19 kDa protein from Oplophorus luciferase; type: biochemical; details: measured for 60 seconds, coelenterazine = 100
T1 construct: made in house
T1 sequence (Q9GV45 28-196): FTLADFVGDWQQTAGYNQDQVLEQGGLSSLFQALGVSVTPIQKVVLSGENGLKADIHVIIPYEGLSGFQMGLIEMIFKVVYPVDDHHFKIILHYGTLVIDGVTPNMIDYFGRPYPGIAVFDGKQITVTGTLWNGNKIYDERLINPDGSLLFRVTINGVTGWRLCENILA
Description: The 19 kDa protein from Oplophorus luciferase was purified by the method described in Inouye, S. and Sasaki, S., Protein Express. Purif. (2007) 56: 261-268 and provided for use.
(§1) After 1 μl of the 19 kDa protein (2.3 mg/ml) from Oplophorus luciferase containing 1 mM DTT was dissolved in 100 μl of 30 mM Tris-HCl (pH 7.6) containing 10 mM EDTA, 1 μl of a solution of coelenterazine or its analogue (1 μg/μl) in ethanol was added to the solution to start the luminescence reaction, and the luminescence activity was measured for 60 seconds on a luminometer luminescencer-PSN AB2200 (manufactured by Atto Co., Ltd.). The luminescence activity was determined by repeating the measurement described above 3 times and expressed in terms of the maximum luminescence intensity (Imax) of luminescence activity.

apoaequorin [2] = molecular target: T2, apoaequorin (Aequorea victoria, UniProt P07164); assay: Calcium standard curve with semi-synthetic aequorins; type: biochemical; details: FIG. 3; Imax versus calcium concentration
T2 construct: purchased Chisso Corporation
T2 sequence (P07164 other isoform, or with tags, fused parts or gaps with the stated changes): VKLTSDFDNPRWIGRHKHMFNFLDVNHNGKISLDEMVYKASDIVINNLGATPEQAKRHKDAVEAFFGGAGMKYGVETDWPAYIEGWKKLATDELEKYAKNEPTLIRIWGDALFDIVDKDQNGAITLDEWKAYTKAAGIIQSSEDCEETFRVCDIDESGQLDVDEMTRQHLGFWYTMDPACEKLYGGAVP
Description: In 9 ml of 50 mM Tris-HCl (pH 7.6), 1 ml of 1 g/L calcium carbonate standard solution (manufactured by Wako Pure Chemicals) was diluted to prepare 10^−3 M calcium carbonate solution. One milliliter of the resulting 10^−3 M calcium carbonate solution was taken and added to 9 ml of 50 mM Tris-HCl (pH 7.6) to prepare 10^−4 M calcium carbonate solution. Next, 3 ml of the resulting 10^−4 M calcium carbonate solution was taken and added to 6 ml of 50 mM Tris-HCl (pH 7.6) to prepare […] calcium carbonate solution. One milliliter from the 10^−4 M calcium carbonate solution obtained was added to 9 ml of 50 mM Tris-HCl (pH 7.6) to prepare 10^−5 M calcium carbonate solution. Then, 3 ml of the resulting 10^−5 M calcium carbonate solution was taken and added to 6 ml of 50 mM Tris-HCl (pH 7.6) to prepare 3×10^−5 M calcium carbonate solution. A dilution series was prepared by successively repeating the procedures described above to give the 10^−3 M to 10^−8 M calcium standard solutions.
In 5 ml of 50 mM Tris-HCl (pH 7.6) containing 10 mM DTT and 30 mM EDTA, 5 mg of recombinant apoaequorin (manufactured by Chisso Corporation) was dissolved and 100 μg of coelenterazine analogue dissolved in ethanol in an amount of 1.2-fold equivalent was added to the solution. The mixture was allowed to stand at 4° C. overnight to convert into semi-synthetic aequorin. The resulting semi-synthetic aequorin was concentrated using Amicon Ultra-4 (manufactured by Millipore, Inc., molecular weight cut-off: 10,000) to remove an excessive of coelenterazine analogue. The mixture was then washed 3 times with 3 ml of 30 mM Tris-HCl (pH 7.6) containing 0.05 mM EDTA to give the solution of semi-synthetic aequorin containing 0.05 mM EDTA. This semi-synthetic aequorin solution (2.5 mg/ml) was diluted with 20 mM Tris-HCl (pH 7.6) containing 0.1% BSA (manufactured by Sigma), 0.01 mM EDTA and 150 mM NaCl.
The calcium standard solution prepared as above was dispensed into a 96-well microplate (Nunc #236108) at 50 μl/well and 10 μl of the diluted semi-synthetic aequorin solution was injected into 50 μl of various concentration of calcium standard solution. The luminescence intensity was measured for 60 seconds on a luminescence plate reader Centro LB960 (manufactured by Berthold) and expressed in terms of the maximum intensity (Imax) of luminescence. The luminescence intensity was measured on each semi-synthetic aequorin in the same procedures. Semi-synthetic aequorins for practically use were chosen by the maximum intensity (Imax) of luminescence and the calcium standard curve of semi-synthetic aequorin was prepared.

apoaequorin [3] = molecular target: T2, apoaequorin; assay: Luminescence spectra of semi-synthetic aequorins; type: biochemical; details: semi-synthetic aequorin, calcium added, 22 to 25° C.
Description: In a quartz cell with light path length of 10 mm, 1 ml of 50 mM Tris-HCl (pH 7.6) containing 1 mM EDTA and 100 μl (100 μg protein) of a solution of the regenerated semi-synthetic aequorin were charged. Next, 100 μl of 50 mM Tris-HCl (pH 7.6) containing 0.1 ml of 10 mM calcium chloride solution was added thereto to start the luminescence reaction. The spectra were measured on a spectrofluorimeter (FP-6500, manufactured by Jasco Co., Ltd.) with the excitation light source turned off. The measurement conditions were bandwidth: 20 nm, response: 0.5 second, scan speed: 2000 nm/min and 22 to 25° C. The luminescence spectra measured were corrected.

Renilla luciferase = molecular target: T3, Renilla luciferase (Renilla reniformis, UniProt P27652); assay: Substrate specificity and luminescence activity of Renilla luciferase; type: biochemical; details: measured for 10 seconds, coelenterazine = 100
T3 construct: made in house
T3 sequence (P27652 1-311): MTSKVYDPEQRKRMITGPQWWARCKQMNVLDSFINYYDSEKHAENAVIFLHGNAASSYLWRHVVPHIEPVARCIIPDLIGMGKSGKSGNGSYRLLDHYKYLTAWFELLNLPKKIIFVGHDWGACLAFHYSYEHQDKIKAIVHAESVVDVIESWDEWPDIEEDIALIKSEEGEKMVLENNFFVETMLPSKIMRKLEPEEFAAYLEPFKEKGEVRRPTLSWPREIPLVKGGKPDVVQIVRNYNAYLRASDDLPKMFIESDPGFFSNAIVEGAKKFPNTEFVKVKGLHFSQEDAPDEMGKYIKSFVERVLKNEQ
Description: Renilla luciferase was purified by the method described in Inouye, S. & Shimomura, O. Biochem. Biophys. Res. Commun. (1997) 233: 349-353, and used for assay.
as §1, with “Renilla luciferase (0.45” for “the 19 kDa protein (2.3”, “mg/ml)” for “mg/ml) from Oplophorus luciferase containing 1 mM DTT”, “reaction. The” for “reaction, and the”, “10” for “60”, “measurement of luminescence activity” for “measurement”

apoaequorin [4] = molecular target: T2, apoaequorin; assay: Luminescence patterns of semi-synthetic aequorins, half decay time; type: biochemical; details: for Half decay time: semi-synthetic aequorin, time in which luminescence becomes half of maximum, patterns measured for 60 seconds
Description: A solution of the regenerated semi-synthetic aequorin was diluted to 10-fold with 20 mM Tris-HCl (pH 7.6) containing 0.1% BSA (manufactured by Sigma, Inc.), 0.01 mM EDTA and 150 mM NaCl. The dilution was dispensed into a 96-well microplate (Nunc #236108) at 5 μl/well. The luminescence reaction was triggered by injecting 50 mM Tris-HCl (pH 7.6) containing 50 mM calcium chloride solution at 100 μl/well. The luminescence patterns for 60 seconds were measured to determine half decay time of the luminescence (a time period in which the luminescence becomes half of the maximum luminescence intensity).

Gaussia luciferase = assay: Substrate specificity and luminescence activity of Gaussia luciferase; type: biochemical; details: measured for 10 seconds, coelenterazine = 100
Description: Gaussia luciferase was purified by the method described in Japanese Patent Application KOKAI No. 2008-099669 and provided for use. After 1 μl of Gaussia luciferase (0.024 mg/ml) was dissolved in 100 μl of phosphate buffered saline (manufactured by Sigma Inc.) containing 0.01% Tween 20 (manufactured by Sigma Inc.) and 10 mM EDTA, 1 μl of a solution of coelenterazine or its analogue (1 μg/μl) in ethanol was mixed with the solution to start the luminescence reaction. The luminescence activity was measured for 10 seconds on a luminometer luminescencer-PSN AB2200 (manufactured by Atto Co., Ltd.). The luminescence activity was determined by repeating the measurement described above 3 times and expressed in terms of the maximum luminescence intensity (Imax) of luminescence activity.

apoaequorin [5] = molecular target: T2, apoaequorin; assay: Fluorescence spectra of fluorescent proteins formed from semi-synthetic aequorins by Ca2+; type: physicochemical; details: for Maximum fluorescence wavelength λmax (nm) / Relative fluorescence intensity (rlu): fluorescent protein generated by calcium from semi-synthetic aequorin, excitation 330 nm, 25° C.; for fluorescence spectra of fluorescent proteins versus emission spectra of semi-synthetic aequorins, in words: same coelenterazine analogue
Description: The fluorescence spectra of novel fluorescent proteins formed by the Ca^2+-triggerd reaction from semi-synthetic aequorins in EXAMPLE 3 were measured at 25° C. in a quartz cell (10 mm light path length) using a Jasco FP-6500 spectrofluorometer (excitation wavelength: 330 nm, emission/excitation bandwidth: 3 nm; response: 0.5 sec, scan speed, 1000 nm/min). The fluorescence spectra measured were corrected.

Compound: O=c1c(Cc2ccc(O)cc2)nc2c(-c3cc4ccccc4s3)[nH]c(-c3ccc(O)cc3)cn1-2 [Compound 3h, 8-(Benzo[b]thiophen-2-yl)-2-(4-hydroxybenzyl)-6-(4-hydroxyphenyl)imidazo[1,2-a]pyrazin-3(7H)-one]
- Luminescence activity Imax (%) [1]: 0.07%
- calcium standard curve with semi-synthetic aequorin, in words (apoaequorin [2]): calcium standard curve can be prepared
- Maximum luminescence wavelength λmax (nm) (apoaequorin [3]): 532.5 nm
- Luminescence activity Imax (%) (Renilla luciferase): 0.00%
- half decay time of luminescence compared to coelenterazine (native aequorin), in words (apoaequorin [4]): longer half decay time
- Half decay time (apoaequorin [4]): 1.71 s
- Luminescence activity Imax (%) (Gaussia luciferase): 0.00%
- Maximum fluorescence wavelength λmax (nm) (apoaequorin [5]): 537.0 nm
- Relative fluorescence intensity (rlu) (apoaequorin [5]): 58.7 rlu
- fluorescence spectra of fluorescent proteins versus emission spectra of semi-synthetic aequorins, in words (apoaequorin [5]): different luminescence spectra and fluorescence spectra

Compound: O=c1c(Cc2ccc(O)cc2)nc2c(-c3ccc4ccccc4c3)[nH]c(-c3ccc(O)cc3)cn1-2 [Compound 3e, 2-(4-Hydroxybenzyl)-6-(4-hydroxyphenyl)-8-(naphthalen-2-yl)imidazo[1,2-a]pyrazin-3(7H)-one]
- Luminescence activity Imax (%) [1]: 0.07%
- calcium standard curve with semi-synthetic aequorin, in words (apoaequorin [2]): calcium standard curve can be prepared
- Maximum luminescence wavelength λmax (nm) (apoaequorin [3]): 507.0 nm
- Luminescence activity Imax (%) (Renilla luciferase): 0.00%
- half decay time of luminescence compared to coelenterazine (native aequorin), in words (apoaequorin [4]): markedly prolonged; also recorded: longer half decay time
- Half decay time (apoaequorin [4]): 3.42 s
- Luminescence activity Imax (%) (Gaussia luciferase): 0.00%
- Maximum fluorescence wavelength λmax (nm) (apoaequorin [5]): 468.5 nm
- Relative fluorescence intensity (rlu) (apoaequorin [5]): 28.0 rlu
- fluorescence spectra of fluorescent proteins versus emission spectra of semi-synthetic aequorins, in words (apoaequorin [5]): markedly different; also recorded: different luminescence spectra and fluorescence spectra

Compound: O=c1c(Cc2ccc(O)cc2)nc2c(-c3cccs3)[nH]c(-c3ccc(O)cc3)cn1-2 [Compound 3f, 2-(4-Hydroxybenzyl)-6-(4-hydroxyphenyl)-8-(thiophen-2-yl)imidazo[1,2-α]pyrazin-3(7H)-one]
- Luminescence activity Imax (%) [1]: 0.1%
- calcium standard curve with semi-synthetic aequorin, in words (apoaequorin [2]): calcium standard curve can be prepared
- Maximum luminescence wavelength λmax (nm) (apoaequorin [3]): 515.0 nm
- Luminescence activity Imax (%) (Renilla luciferase): 0.00%
- half decay time of luminescence compared to coelenterazine (native aequorin), in words (apoaequorin [4]): markedly prolonged; also recorded: longer half decay time
- Half decay time (apoaequorin [4]): >60 s
- Luminescence activity Imax (%) (Gaussia luciferase): 0.00%
- Maximum fluorescence wavelength λmax (nm) (apoaequorin [5]): 525.0 nm
- Relative fluorescence intensity (rlu) (apoaequorin [5]): 38.5 rlu
- fluorescence spectra of fluorescent proteins versus emission spectra of semi-synthetic aequorins, in words (apoaequorin [5]): different luminescence spectra and fluorescence spectra
